Test results reported in ChEMBL document CHEMBL1201862, “PubChem BioAssay data set” (2004).
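In this assay, cells in 96-well plates receive the compound at five concentrations for 48 hours. Endpoints are linearly interpolated between the surrounding concentrations. GI50 is the concentration that inhibits growth by half.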 Calls of active or inactive are those of the source. Cut-off read from the data, not from the text of the source: active = GI50 up to about 1.1 µM and inactive = higher.

Legend:
Experiment in all cases: growth of human tumour cells (NCI), 48 h
A549 = system: A549
ACHN = system: ACHN
HL-60 = system: HL-60
HT-29 = system: HT-29
LOX IMVI = system: LOX IMVI
MCF7 = system: MCF7
Malme-3M = system: Malme-3M
NCI/ADR-RES = system: NCI/ADR-RES
PC-3 = system: PC-3
SF-539 = system: SF-539
T47D = system: T47D
TK-10 = system: TK-10
U-251 = system: U-251
CAKI-1 = system: CAKI-1
IGROV-1 = system: IGROV-1
KM12 = system: KM12
SF-295 = system: SF-295
SR = system: SR

Measured: GI50

CCCCC(CCCC)=NNC(=S)SC
inactive: A549 26.1 µM | ACHN 29.6 µM | HL-60 20.7 µM | HT-29 33.6 µM | LOX IMVI 27.3 µM | MCF7 28.6 µM | Malme-3M 13.1 µM | NCI/ADR-RES 25.1 µM | PC-3 40.1 µM | SF-539 26.2 µM | T47D 20 µM | TK-10 17 µM | U-251 29.6 µM

O=C1C2=Cc3ccccc3OC2(O)Oc2cc(O)ccc21 (centres undefined)
inactive: A549 > 100 µM | ACHN > 100 µM | CAKI-1 > 100 µM | HT-29 > 100 µM | IGROV-1 > 100 µM | KM12 > 100 µM | LOX IMVI > 100 µM | MCF7 > 100 µM | Malme-3M > 100 µM | NCI/ADR-RES > 100 µM | PC-3 > 100 µM | SF-295 > 100 µM | SF-539 > 100 µM | T47D > 100 µM | TK-10 > 100 µM | U-251 > 100 µM

Nc1ncnc2c1ncn2[C@@H]1C[C@H](NO)[C@@H](O)[C@H]1O
inactive: A549 > 100 µM | ACHN > 100 µM | IGROV-1 > 100 µM | KM12 9.25 µM | LOX IMVI 13.1 µM | MCF7 49.3 µM | Malme-3M > 100 µM | NCI/ADR-RES 68.5 µM | PC-3 > 100 µM | SF-295 > 100 µM | SF-539 33.5 µM | SR 3.55 µM | T47D > 100 µM | TK-10 > 100 µM | U-251 > 100 µM

CC1C(O)Oc2cc3c(cc2C1c1ccccc1O)OCO3 (centres undefined)
inactive: A549 30.1 µM | ACHN 29.6 µM | CAKI-1 29.2 µM | HL-60 17.9 µM | HT-29 23.3 µM | IGROV-1 28 µM | KM12 32.1 µM | LOX IMVI 31.6 µM | MCF7 38.1 µM | Malme-3M 25.3 µM | PC-3 19.5 µM | SF-295 21.2 µM | SF-539 27.9 µM | SR 4.65 µM | T47D 30.4 µM | TK-10 27.4 µM | U-251 37.8 µM

Cc1ccc(Cl)c2[nH]c(-c3ccccc3)cc(=O)c12
inactive: A549 24.1 µM | ACHN 30.3 µM | HL-60 23 µM | HT-29 43.5 µM | IGROV-1 33.7 µM | KM12 21.4 µM | LOX IMVI 22.5 µM | MCF7 3.18 µM | Malme-3M > 100 µM | NCI/ADR-RES 57.4 µM | PC-3 23.3 µM | SF-295 63.5 µM | T47D 11.5 µM | TK-10 47.2 µM | U-251 77.8 µM

CC(NC(=N)N)C(=O)O (centres undefined)
inactive: A549 > 100 µM | ACHN > 100 µM | CAKI-1 > 100 µM | HT-29 > 100 µM | IGROV-1 > 100 µM | KM12 > 100 µM | LOX IMVI > 100 µM | MCF7 > 100 µM | Malme-3M > 100 µM | NCI/ADR-RES > 100 µM | PC-3 > 100 µM | SF-295 > 100 µM | SR > 100 µM | T47D > 100 µM | TK-10 > 100 µM | U-251 > 100 µM

N#CCCN(CCC#N)c1ccc(C(/N=N/c2ccccc2)=N\c2ccccc2)cc1
inactive: A549 > 100 µM | ACHN > 100 µM | CAKI-1 > 100 µM | HT-29 > 100 µM | IGROV-1 > 100 µM | KM12 > 100 µM | MCF7 > 100 µM | NCI/ADR-RES > 100 µM | PC-3 > 100 µM | SF-295 > 100 µM | SF-539 > 100 µM | SR > 100 µM | T47D > 100 µM | TK-10 > 100 µM | U-251 > 100 µM

Cc1nc2ccccc2c(=O)n1NC(=O)Cc1ccccc1
inactive: A549 > 100 µM | ACHN > 100 µM | HL-60 > 100 µM | HT-29 > 100 µM | IGROV-1 > 100 µM | KM12 > 100 µM | LOX IMVI > 100 µM | MCF7 > 100 µM | Malme-3M > 100 µM | PC-3 > 100 µM | SF-295 > 100 µM | SF-539 > 100 µM | SR > 100 µM | T47D > 100 µM | TK-10 > 100 µM | U-251 > 100 µM

COC(=O)CCC(=O)c1ccc2c(c1)CC1(Cc3ccccc3C1)C2
inactive: A549 54.7 µM | ACHN 56.2 µM | HT-29 20.1 µM | IGROV-1 > 100 µM | KM12 > 100 µM | LOX IMVI 36.2 µM | MCF7 85.5 µM | Malme-3M 80.5 µM | NCI/ADR-RES 64 µM | PC-3 41 µM | SF-295 38 µM | SF-539 > 100 µM | SR 14.7 µM | T47D 39.1 µM | TK-10 78.7 µM | U-251 58.7 µM
